Measured values from patent US8044198B2, “Sirtuin modulating compounds” (Sirtris Pharmaceuticals, Inc., priority 2005, dated 2011).
Like-named read-outs stand apart in the source and are kept apart here.

Target: T1, SIRT1 (Homo sapiens, UniProt Q96EB6)
T1 sequence (Q96EB6 1-747): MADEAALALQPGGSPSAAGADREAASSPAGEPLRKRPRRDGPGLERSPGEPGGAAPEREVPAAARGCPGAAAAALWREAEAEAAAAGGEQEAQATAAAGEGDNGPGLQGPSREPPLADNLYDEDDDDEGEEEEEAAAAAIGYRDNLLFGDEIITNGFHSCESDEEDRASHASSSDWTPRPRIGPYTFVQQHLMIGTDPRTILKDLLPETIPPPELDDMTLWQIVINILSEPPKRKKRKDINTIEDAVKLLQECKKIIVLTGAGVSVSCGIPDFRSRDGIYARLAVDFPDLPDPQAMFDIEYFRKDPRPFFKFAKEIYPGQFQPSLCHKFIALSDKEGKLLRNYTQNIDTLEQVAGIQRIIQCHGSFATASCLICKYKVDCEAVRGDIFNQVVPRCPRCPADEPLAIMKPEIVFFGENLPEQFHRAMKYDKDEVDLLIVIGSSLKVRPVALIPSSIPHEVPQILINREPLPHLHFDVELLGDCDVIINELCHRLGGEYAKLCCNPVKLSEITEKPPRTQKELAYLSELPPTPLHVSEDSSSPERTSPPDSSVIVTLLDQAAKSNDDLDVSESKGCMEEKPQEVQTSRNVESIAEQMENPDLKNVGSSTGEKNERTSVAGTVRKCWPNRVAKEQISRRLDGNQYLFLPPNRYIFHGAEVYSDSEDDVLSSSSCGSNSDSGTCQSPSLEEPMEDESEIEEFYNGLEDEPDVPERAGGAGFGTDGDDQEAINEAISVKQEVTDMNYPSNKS
Assay: SIRT1 mass spectrometry (MS) based deacetylation assay; on FOLD ACT. MS: test concentration or dose not given here
Type: biochemical
Settings: for EC50: mass spectrometry assay, read-out: ED50 MS ASSAY

[1] = Sirt1 activators, fold activation as determined by MS
[2] = fold activation of SIRT1, mass spectrometry assay
[3] = fold activation of SIRT1 as determined by MS
[4] = SIRT1 fold activation as determined by MS

| SMILES | EC50 (SIRT1 activation) [µM] | FOLD ACT. MS [2] | also measured |
| --- | --- | --- | --- |
| COc1cc(C(=O)Nc2cccc(-c3nc4ncccc4o3)c2)ccc1CN1CCCC1 [Compound 506] |  |  | FOLD ACT. MS [1]: A (A (Fold activation >250%)); EC50 (Sirt1 activators): 5 to 50 µM |
| CC(=O)N1CCN(Cc2csc3nc(-c4ccccc4NC(=O)c4cnc5ccccc5n4)cn23)CC1 [Compound 651] |  |  | FOLD ACT. MS [1]: A (A (Fold activation >250%)); EC50 (Sirt1 activators): < 5 µM |
| CN(C)c1cccc(C(=O)Nc2ccccc2-c2nc3cnccc3s2)c1 [Compound 321] | < 5 | B (B (Fold Activation <250%)) |  |
| COc1ccc(C(=O)Nc2cccc(-c3nc4ccncc4o3)c2)c(OC)c1 [Compound 429] | < 5 | B (B (Fold Activation <250%)) |  |
| COc1cc(OC)cc(C(=O)Nc2ccccc2-c2nc3cccnc3[nH]2)c1 [Compound 521] |  |  | FOLD ACT. MS [1]: B (B (Fold Activation <250%)); EC50 (Sirt1 activators): < 5 µM |
| O=C(NCc1ccc2c(c1)OCO2)c1cccc(-c2nc3ncccc3o2)c1 [Compound 103] | > 150 |  |  |
| O=C(Nc1cccc(-c2nc3ccncc3s2)c1)c1cc(C(F)(F)F)ccc1C(F)(F)F [Compound 248] | 5 to 50 | B (B (Fold Activation <250%)) |  |
| COc1ccc(C(=O)Nc2ccccc2-c2nc3ccccn3c2CN2CCNCC2)cc1OC [Compound 364] | > 150 | A (A (Fold activation >250%)) |  |
| COc1ccc(C(=O)Nc2cccc(-c3nc4ccncc4o3)c2)c(OC)c1OC [Compound 452] | 5 to 50 | B (B (Fold Activation <250%)) |  |
| COc1cc(C(=O)Nc2cccc(-c3cn4ccc(C)cc4n3)c2)cc(OC)c1OC [Compound 129] | < 5 |  | FOLD ACT. MS [3]: A (A (Fold activation >250%)) |
| COc1ccc(C(=O)Nc2cccc(-c3nc4cnccc4s3)c2)c(OC)c1 [Compound 272] | < 5 | B (B (Fold Activation <250%)) |  |
| COc1ccc(C(=O)Nc2cccc(-c3nc4ncccc4s3)c2)c(OC)c1 [Compound 202] | < 5 |  | FOLD ACT. MS [3]: B (B (Fold Activation <250%)) |
| O=C(Nc1ccccc1-c1cn2c(CN3CCNCC3)csc2n1)c1cccc(SC(F)F)c1 [Compound 737] | < 5 |  | FOLD ACT. MS [4]: A (A (Fold activation >250%)) |
| COc1cc(C(=O)Nc2ccc(-c3nc4cnccc4o3)s2)cc(OC)c1OC [Compound 426] | < 5 | B (B (Fold Activation <250%)) |  |
| COc1ccc(C(=O)Nc2cccc(-c3nc4cccnc4o3)c2)cc1OC [Compound 112] | 5 to 50 |  | FOLD ACT. MS [3]: B (B (Fold Activation <250%)) |
| COc1ccc(C(=O)Nc2ccc(-c3nc4cccnc4[nH]3)cc2)cc1OC [Compound 150] | < 5 |  | FOLD ACT. MS [3]: B (B (Fold Activation <250%)) |
| COc1cc(C(=O)Nc2cc(-c3nc4ncccc4o3)ccn2)ccc1CN1CCN(Cc2ccccc2)CC1 [Compound 643] |  |  | FOLD ACT. MS [1]: B (B (Fold Activation <250%)); EC50 (Sirt1 activators): 5 to 50 µM |
| COc1ccc(C(=O)Nc2ccc(-c3nc4cnccc4o3)s2)c(OC)c1 [Compound 422] | 5 to 50 | B (B (Fold Activation <250%)) |  |
| CN(C)c1cccc(C(=O)Nc2cccc(-c3nc4ccncc4o3)c2)c1 [Compound 453] | 5 to 50 | B (B (Fold Activation <250%)) |  |
| COc1cc(C(=O)Nc2ccccc2-c2nc3cccnc3[nH]2)cc(OC)c1OC [Compound 522] |  |  | FOLD ACT. MS [1]: A (A (Fold activation >250%)); EC50 (Sirt1 activators): 5 to 50 µM |
| N#Cc1cccc(C(=O)Nc2ccccc2-c2nc3cc(CN4CCOCC4)cnc3s2)c1 [Compound 685] | < 5 |  | FOLD ACT. MS [4]: B (B (Fold Activation <250%)) |
| COc1cc(C(=O)Nc2ccccc2-c2nc3cccnc3[nH]2)ccc1CN(C)C [Compound 540] |  |  | FOLD ACT. MS [1]: A (A (Fold activation >250%)); EC50 (Sirt1 activators): 5 to 50 µM |

| SMILES | EC50 (SIRT1 activation) [µM] | FOLD ACT. MS [2] | also measured |
| --- | --- | --- | --- |
| COc1cc(OC)cc(C(=O)Nc2ccccc2-c2nc3c(CN4CCNCC4)ccnc3s2)c1 [Compound 723] | 5 to 50 |  | FOLD ACT. MS [4]: A (A (Fold activation >250%)) |
| COc1ccc(C(=O)Nc2cccc(-c3nc4cnccc4s3)c2)c(OC)c1OC [Compound 401] | 5 to 50 | B (B (Fold Activation <250%)) |  |
| COc1cc(C(=O)Nc2ccccc2-c2nc3ccccn3c2CN2CCNCC2)cc(OC)c1OC [Compound 362] | 51 to 100 | B (B (Fold Activation <250%)) |  |
| COc1cc(C(=O)Nc2ccccc2-c2nc3ncccc3o2)ccc1CN1CCCCC1 [Compound 585] |  |  | FOLD ACT. MS [1]: B (B (Fold Activation <250%)); EC50 (Sirt1 activators): 5 to 50 µM |
| CN1CCN(C(=O)Cc2csc3nc(-c4ccccc4NC(=O)c4cnc5ccccc5n4)cn23)CC1 [Compound 649] |  |  | FOLD ACT. MS [1]: A (A (Fold activation >250%)); EC50 (Sirt1 activators): < 5 µM |
| O=C(Nc1ccccc1-c1cn2c(CN3CCN(Cc4ccccc4)CC3=O)csc2n1)c1cnc2ccccc2n1 [Compound 628] |  |  | FOLD ACT. MS [1]: B (B (Fold Activation <250%)); EC50 (Sirt1 activators): < 5 µM |
| COc1ccc(C(=O)Nc2cccc(-c3csc(C)n3)c2)c(OC)c1 [Compound 81] | 5 to 50 |  | FOLD ACT. MS [3]: B (B (Fold Activation <250%)) |
| COc1ccc(C(=O)Nc2cccc(-c3csc(-c4ccccc4)n3)c2)cc1OC [Compound 84] | 5 to 50 |  | FOLD ACT. MS [3]: B (B (Fold Activation <250%)) |
| O=C(Nc1ccccc1-c1cn2c(CCN3CCNCC3)csc2n1)c1cnc2ccccc2n1 [Compound 680] |  |  | FOLD ACT. MS [1]: A (A (Fold activation >250%)); EC50 (Sirt1 activators): < 5 µM |
| COc1cc(C(=O)Nc2ccccc2-c2cn3c(CN4CCOCC4)csc3n2)cc(OC)c1OC [Compound 210] | 5 to 50 |  | FOLD ACT. MS [3]: B (B (Fold Activation <250%)) |
| COc1cc(OC)cc(C(=O)Nc2ccccc2-c2nc3cnccc3s2)c1 [Compound 318] | 5 to 50 | B (B (Fold Activation <250%)) |  |
| COc1ccc(C(=O)Nc2ccccc2-c2cn3c(CN4CCNCC4)csc3n2)c(OC)c1 [Compound 326] | 5 to 50 | B (B (Fold Activation <250%)) |  |
| COc1ccc(C(=O)Nc2cccc(-c3cccnc3)c2)cc1OC [Compound 332] | 5 to 50 | B (B (Fold Activation <250%)) |  |
| COc1ccc(C(=O)Nc2ccccc2-c2cnc3ccccc3c2)c(OC)c1 [Compound 413] | 51 to 100 | B (B (Fold Activation <250%)) |  |
| O=C(Nc1ccccc1-c1nc2ccncc2s1)c1cc(C(F)(F)F)ccc1C(F)(F)F [Compound 596] |  |  | EC50 (Sirt1 activators): < 5 µM |
| COc1cc(C)ccc1C(=O)Nc1cccc(-c2nc3ncccc3s2)c1 [Compound 199] | < 5 |  | FOLD ACT. MS [3]: B (B (Fold Activation <250%)) |
| Cc1c(C(=O)Nc2ccccc2-c2cn3c(CN4CCNCC4)csc3n2)oc2ccccc12 [Compound 442] | < 5 | A (A (Fold activation >250%)) |  |
| COc1ccc(C(=O)Nc2ccc(-c3nc4ncccc4s3)cc2)cc1OC [Compound 197] | < 5 |  | FOLD ACT. MS [3]: B (B (Fold Activation <250%)) |
| COc1ccc(C(=O)Nc2cc(C(=O)NCCN(C)C)cc(-c3nc4ncccc4o3)c2)c(OC)c1 [Compound 155] | 5 to 50 |  | FOLD ACT. MS [3]: B (B (Fold Activation <250%)) |
| CN(C)c1cccc(C(=O)Nc2ccccc2-c2cn3cccnc3n2)c1 [Compound 504] |  |  | FOLD ACT. MS [1]: B (B (Fold Activation <250%)); EC50 (Sirt1 activators): 5 to 50 µM |
| O=C(Nc1ccccc1-c1cn2c(CN3CCNCC3)csc2n1)c1cccnc1F [Compound 744] | 51 to 100 |  | FOLD ACT. MS [4]: A (A (Fold activation >250%)) |
